Assay results: ChEMBL document CHEMBL1949519
Calls of active or inactive are those of the source. The rule behind the calls is not given here.

Columns and labels:
Format in all cases: cell-based
Settings in all cases: COS-1
[1] = molecular target: T1, Long-wave-sensitive opsin 1 (Homo sapiens) (UniProt P04000); test: Inverse agonist activity at human red cone opsin expressed in COS1 cells assessed as transducer activity at 20 uM by radioactive filter binding assay
T1 sequence (whole entry): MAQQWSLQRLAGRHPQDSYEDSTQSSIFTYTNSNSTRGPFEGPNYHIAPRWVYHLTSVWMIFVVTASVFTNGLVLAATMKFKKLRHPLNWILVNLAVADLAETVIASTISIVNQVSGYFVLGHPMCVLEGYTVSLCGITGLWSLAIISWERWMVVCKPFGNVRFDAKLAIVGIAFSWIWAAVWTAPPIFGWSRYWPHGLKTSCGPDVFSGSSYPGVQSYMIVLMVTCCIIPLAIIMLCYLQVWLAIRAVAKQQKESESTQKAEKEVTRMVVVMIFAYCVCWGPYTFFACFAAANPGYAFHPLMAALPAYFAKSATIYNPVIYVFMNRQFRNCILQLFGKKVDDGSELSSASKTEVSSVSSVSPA

[2] = molecular target: T1, Long-wave-sensitive opsin 1 (Homo sapiens); test: Inverse agonist activity at human red cone opsin expressed in COS1 cells assessed as transducer activity at 200 uM by radioactive filter binding assay
[3] = molecular target: T1, Long-wave-sensitive opsin 1 (Homo sapiens); test: Inverse agonist activity at human red cone opsin expressed in COS1 cells assessed as transducer activity at 2 mM by radioactive filter binding assay
[4] = molecular target: T1, Long-wave-sensitive opsin 1 (Homo sapiens); test: Agonist activity at human red cone opsin expressed in COS1 cells assessed as activation of transducer at 20 uM by radioactive filter binding assay

CC1=C(/C=C/C(C)=C\C=C\C=O)C(C)(C)CCC1
Activity [1]: Active

CC1=C(C=O)C(C)(C)CCC1
Activity [2]: Active

C1CCCCC1
Activity [3]: inactive

CC1CCCC(C)C1 (stereo not given)
Activity [3]: Active

CC1=C(/C=C/C(C)=C/C=C/C(C)=C/C=C/C=O)C(C)(C)CCC1
Activity [4]: inactive
